Experimental findings from patent US20120040977A1, “INHIBITORS OF HCV NS5A” (PRESIDIO PHARMACEUTICALS, INC., priority 2009, published 2012) are described below.

For the assay, the system named is HCV genotype 1b replicon. Kind of assay: HCV replicon assay (HCV 1b_Huh-Luc/Neo-ET cell line, luciferase readout). The format is cell-based. The following applies: Hepatitis C virus; bicistronic genotype 1b replicon in Huh 7 cells, 72 h incubation, luciferase enzyme activity; read-out: Inhibition of HCV genotype 1b. On the procedure:
Biological activity of the compounds of the invention was determined using an HCV replicon assay. The HCV 1b_Huh-Luc/Neo-ET cell line persistently expressing a bicistronic genotype 1b replicon in Huh 7 cells was obtained from ReBLikon GMBH. This cell line was used to test compound inhibition using luciferase enzyme activity readout as a measurement of compound inhibition of replicon levels.
On Day 1 (the day after plating cells), each compound is added in triplicate to the cells. Plates are incubated for 72 h prior to determining luciferase levels. Enzyme activity was measured using a Bright-Glo Kit (cat. number E2620) manufactured by Promega Corporation. The following equation was used to generate a percent control value for each compound.
% Control=(Average Compound Value/Average Control)*100
The EC50 value was determined using GraphPad Prism and the following equation:
Y=Bottom+(Top−Bottom)/(1+10̂((LogIC50−X)*HillSlope))
EC50 values of compounds are determined several times in the replicon assay. […]
On the technique in general: A replicon is a self-replicating genome or part of one, used to study replication in cells.
Take `COC(=O)N[C@H](C(=O)N1CCC[C@H]1c1ncc(-c2ccc(Sc3cccc(-c4cnc([C@@H]5CCCN5C(=O)[C@@H](NC(=O)OC)C(C)C)[nH]4)c3)cc2)[nH]1)C(C)C` [Compound 69]: the EC50 is less than 1 nM.

For `COC(=O)N[C@H](C(=O)N1CCC[C@H]1c1ncc(-c2ccc(Oc3cccc(-c4cnc([C@@H]5CCCN5C(=O)[C@@H](NC(=O)OC)C(C)C)[nH]4)c3)cc2)[nH]1)C(C)C` [Compound 70], the EC50 was less than 1 nM.

As for `COC(=O)N[C@H](C(=O)N1CCC[C@H]1C(=O)Nc1ccc(-c2ccc(-c3cnc([C@@H]4CCCN4C(=O)[C@@H](NC(=O)OC)C(C)C)[nH]3)cn2)cc1)C(C)C` [Compound 71], the EC50 was 1 to 9.9 nM.

As for `COC(=O)N[C@@H](C(=O)N1CCC[C@H]1C(=O)Nc1ccc(-c2ccc(-c3cnc([C@@H]4CCCN4C(=O)[C@H](NC(=O)OC)c4ccccc4)[nH]3)cn2)cc1)c1ccccc1` [Compound 72], the EC50 is less than 1 nM.

Regarding `COC(=O)N[C@H](C(=O)N1CCC[C@H]1C(=O)Nc1ccc(-c2ccc3nc([C@@H]4CCCN4C(=O)[C@@H](NC(=O)OC)C(C)C)[nH]c3c2)cc1)C(C)C` [Compound 73], the EC50 was in the range of 1 to 9.9 nM.

As to `COC(=O)N[C@@H](C(=O)N1CCC[C@H]1C(=O)Nc1ccc(-c2ccc3nc([C@@H]4CCCN4C(=O)[C@H](NC(=O)OC)c4ccccc4)[nH]c3c2)cc1)c1ccccc1` [Compound 74], the EC50 is less than 1 nM.

As to `C=CC[C@H](NC(=O)OC)C(=O)N1CCC[C@H]1C(=O)Nc1ccc(-c2ccc(-c3cnc([C@@H]4CCCN4C(=O)[C@H](CC=C)NC(=O)OC)[nH]3)cc2)cc1` [Compound 75], the EC50 was in the range of 1 to 9.9 nM.

On to `C#CC[C@H](NC(=O)OC)C(=O)N1CCC[C@H]1C(=O)Nc1ccc(-c2ccc(-c3cnc([C@@H]4CCCN4C(=O)[C@H](CC#C)NC(=O)OC)[nH]3)cc2)cc1` [Compound 76], for which the EC50 was in the range of 1 to 9.9 nM.

On to `[2H]C([2H])([2H])C([2H])(C([2H])([2H])[2H])C([2H])(NC(=O)OC)C(=O)N1CCC[C@H]1c1ncc(-c2ccc(-c3ccc(NC(=O)[C@@H]4CCCN4C(=O)[C@@]([2H])(NC(=O)OC)C([2H])(C([2H])([2H])[2H])C([2H])([2H])[2H])cc3)cc2)[nH]1` (stereo partly drawn) [Compound 77], for which the EC50 was less than 1 nM.

With `COC(=O)N[C@H](C(=O)N1CCC[C@H]1CNC(=O)c1ccc(-c2ccc(-c3cnc([C@@H]4CCCN4C(=O)[C@@H](NC(=O)OC)C(C)C)[nH]3)cn2)cc1)C(C)C` [Compound 78], the EC50 is less than 1 nM.

As for `COC(=O)N[C@@H](C(=O)N1CCC[C@H]1CNC(=O)c1ccc(-c2ccc(-c3cnc([C@@H]4CCCN4C(=O)[C@H](NC(=O)OC)c4ccccc4)[nH]3)cn2)cc1)c1ccccc1` [Compound 79], the EC50 is less than 1 nM.

For `C=CC[C@H](NC(=O)OC)C(=O)N1CCC[C@H]1C(=O)NCc1ccc(-c2ccc(-c3cnc([C@@H]4CCCN4C(=O)[C@H](CC=C)NC(=O)OC)[nH]3)cc2)cc1` [Compound 80], the EC50 lay within 1 to 9.9 nM.

For the compound `C#CC[C@H](NC(=O)OC)C(=O)N1CCC[C@H]1C(=O)NCc1ccc(-c2ccc(-c3cnc([C@@H]4CCCN4C(=O)[C@H](CC#C)NC(=O)OC)[nH]3)cc2)cc1` [Compound 81], the EC50 lay in the range of 10 to 999 nM.

Turning to `[2H]C([2H])([2H])C([2H])(C([2H])([2H])[2H])C([2H])(NC(=O)OC)C(=O)N1CCC[C@H]1c1ncc(-c2ccc(-c3ccc(CNC(=O)[C@@H]4CCCN4C(=O)[C@@]([2H])(NC(=O)OC)C([2H])(C([2H])([2H])[2H])C([2H])([2H])[2H])cc3)cc2)[nH]1` (stereo partly drawn) [Compound 82], the EC50 fell in the range of 1 to 9.9 nM.

`COC(=O)N[C@H](C(=O)N1CCC[C@H]1CNC(=O)c1ccc(-c2ccc(-c3cnc([C@@H]4CCCN4C(=O)[C@@H](NC(=O)OC)C(C)C)[nH]3)cc2)cn1)C(C)C` [Compound 83]: the EC50 lay in the range of 1 to 9.9 nM.

As for `COC(=O)N[C@H](C(=O)N1CCC[C@H]1CNC(=O)c1ccc(-c2ccc3c(c2)CCc2nc([C@@H]4CCCN4C(=O)[C@@H](NC(=O)OC)C(C)C)[nH]c2-3)cc1)C(C)C` [Compound 84], the EC50 was less than 1 nM.

As for `COC(=O)N[C@H](C(=O)N1CCC[C@H]1c1nc2c([nH]1)-c1ccc(-c3ccc(C(=O)NC[C@@H]4CCCN4C(=O)[C@H](NC(=O)OC)c4ccccc4)cc3)cc1CC2)C(C)C` [Compound 85], the EC50 was less than 1 nM.

With `COC(=O)N[C@H](C(=O)N1CCC[C@H]1C(=O)NCc1ccc(-c2ccc3cc(-c4cnc([C@@H]5CCCN5C(=O)[C@@H](NC(=O)OC)C(C)C)[nH]4)ccc3n2)cc1)C(C)C` [Compound 86], the EC50 lay within 1 to 9.9 nM.

As for `COC(=O)N[C@H](C(=O)N1CCC[C@H]1C(=O)NCc1ccc(-c2ccc3nc([C@@H]4CCCN4C(=O)[C@@H](NC(=O)OC)C(C)C)[nH]c3c2)cc1)C(C)C` [Compound 87], the EC50 lay within 1 to 9.9 nM.

`COC(=O)N[C@H](C(=O)N[C@@H](C)c1ncc(-c2ccc(-c3ccc(C(=O)NC[C@@H]4CCCN4C(=O)[C@@H](NC(=O)OC)C(C)C)cc3)cc2)[nH]1)C(C)C` [Compound 88]: the EC50 was less than 1 nM.

As to `COC(=O)N[C@@H](C(=O)N[C@@H](C)c1ncc(-c2ccc(-c3ccc(C(=O)NC[C@@H]4CCCN4C(=O)[C@H](NC(=O)OC)c4ccccc4)cc3)cc2)[nH]1)c1ccccc1` [Compound 89], the EC50 is less than 1 nM.

Consider `COC(=O)N[C@H](C(=O)N1CCC[C@H]1CNC(=O)c1ccc(-c2ccc(-c3cnc([C@@H]4CCCN4C(=O)[C@@H](NC(=O)OC)C(C)C)[nH]3)nc2)cc1)C(C)C` [Compound 90], for which the EC50 is 1 to 9.9 nM.

As for `COC(=O)N[C@@H](C(=O)N1CCC[C@H]1CNC(=O)c1ccc(-c2ccc(-c3cnc([C@@H]4CCCN4C(=O)[C@H](NC(=O)OC)c4ccccc4)[nH]3)nc2)cc1)c1ccccc1` [Compound 91], the EC50 was less than 1 nM.

Take `COC(=O)N[C@H](C(=O)N[C@@H](C)c1ncc(-c2ccc(-c3ccc(C(=O)NC[C@@H]4CCCN4C(=O)[C@@H](NC(=O)OC)C(C)C)nc3)cc2)[nH]1)C(C)C` [Compound 92]: the EC50 was 1 to 9.9 nM.

Consider `COC(=O)N[C@@H](C(=O)N[C@@H](C)c1ncc(-c2ccc(-c3ccc(C(=O)NC[C@@H]4CCCN4C(=O)[C@H](NC(=O)OC)c4ccccc4)nc3)cc2)[nH]1)c1ccccc1` [Compound 93], for which the EC50 was less than 1 nM.

As for `COC(=O)N[C@@H](C)C(=O)N1CCC[C@H]1C(=O)N[C@@H](C)c1ccc(-c2ccc(-c3cnc([C@@H]4CCCN4C(=O)[C@H](C)NC(=O)OC)[nH]3)cc2)cc1` [Compound 94], the EC50 was in the range of 1 to 9.9 nM.

For the compound `COC(=O)N[C@H](C(=O)N1CCC[C@H]1C(=O)N[C@@H](C)c1ccc(-c2ccc(-c3cnc([C@@H]4CCCN4C(=O)[C@@H](NC(=O)OC)C(C)C)[nH]3)cc2)cc1)C(C)C` [Compound 95], the EC50 is less than 1 nM.

In the case of `COC(=O)N[C@@H](C)C(=O)N1CCC[C@H]1C(=O)N[C@H](C)c1ccc(-c2ccc(-c3cnc([C@@H]4CCCN4C(=O)[C@H](C)NC(=O)OC)[nH]3)cc2)cc1` [Compound 96], the EC50 lay within 1 to 9.9 nM.

In the case of `COC(=O)N[C@H](C(=O)N1CCC[C@H]1C(=O)N[C@H](C)c1ccc(-c2ccc(-c3cnc([C@@H]4CCCN4C(=O)[C@@H](NC(=O)OC)C(C)C)[nH]3)cc2)cc1)C(C)C` [Compound 97], the EC50 lay within 1 to 9.9 nM.

On to `COC(=O)N[C@@H](C)C(=O)N1CCC[C@H]1CNC(=O)c1ccc(-c2ccc(-c3cnc([C@@H]4CCCN4C(=O)[C@H](C)NC(=O)OC)[nH]3)cc2)cc1` [Compound 98], for which the EC50 is 1 to 9.9 nM.

Take `COC(=O)N[C@H](C(=O)N1CCC[C@H]1CNC(=O)c1ccc(-c2ccc(-c3cnc([C@@H]4CCCN4C(=O)[C@@H](NC(=O)OC)C(C)C)[nH]3)cc2)cc1)C(C)C` [Compound 99]: the EC50 was less than 1 nM.

On to `COC(=O)N[C@H](C(=O)N1CCC[C@H]1C(=O)N[C@@H](C)c1ccc(-c2ccc(-c3cnc([C@@H]4CCCN4C(=O)[C@@H](NC(=O)OC)[C@@H](C)OC)[nH]3)cc2)cc1)[C@@H](C)OC` [Compound 100], for which the EC50 is less than 1 nM.

Regarding `COC(=O)N[C@H](C(=O)N1CCC[C@H]1C(=O)N[C@@H](C)c1ccc(-c2ccc(-c3cnc([C@@H]4CCCN4C(=O)[C@@H](NC(=O)OC)C4CCOCC4)[nH]3)cc2)cc1)C1CCOCC1` [Compound 101], the EC50 fell in the range of 1 to 9.9 nM.

`COC(=O)N[C@H](C(=O)N1CCC[C@H]1C(=O)N[C@H](C)c1ccc(-c2ccc(-c3cnc([C@@H]4CCCN4C(=O)[C@@H](NC(=O)OC)[C@@H](C)OC)[nH]3)cc2)cc1)[C@@H](C)OC` [Compound 102]: the EC50 was in the range of 10 to 999 nM.

`COC(=O)N[C@H](C(=O)N1CCC[C@H]1C(=O)N[C@H](C)c1ccc(-c2ccc(-c3cnc([C@@H]4CCCN4C(=O)[C@@H](NC(=O)OC)C4CCOCC4)[nH]3)cc2)cc1)C1CCOCC1` [Compound 103]: the EC50 was 10 to 999 nM.

`COC(=O)N[C@@H](C)C(=O)N1CCC[C@H]1C(=O)NCc1ccc(-c2ccc(-c3cnc([C@@H]4CCCN4C(=O)[C@H](C)NC(=O)OC)[nH]3)cc2)cc1` [Compound 104]: the EC50 was in the range of 10 to 999 nM.

Consider `COC(=O)N[C@H](C(=O)N1CCC[C@H]1C(=O)NCc1ccc(-c2ccc(-c3cnc([C@@H]4CCCN4C(=O)[C@@H](NC(=O)OC)C(C)C)[nH]3)cc2)cc1)C(C)C` [Compound 105], for which the EC50 was 10 to 999 nM.

On to `COC(=O)N[C@H](C(=O)N1CCC[C@H]1C(=O)NCc1ccc(-c2ccc(-c3cnc([C@@H]4CCCN4C(=O)[C@@H](NC(=O)OC)[C@@H](C)OC)[nH]3)cc2)cc1)[C@@H](C)OC` [Compound 106], for which the EC50 lay within 10 to 999 nM.

`COC(=O)N[C@H](C(=O)N1CCC[C@H]1C(=O)NCc1ccc(-c2ccc(-c3cnc([C@@H]4CCCN4C(=O)[C@@H](NC(=O)OC)C4CCOCC4)[nH]3)cc2)cc1)C1CCOCC1` [Compound 107]: the EC50 lay in the range of 10 to 999 nM.
